Laboratory results: US11572590B2, “Methods for evaluating tumor cell spheroids using 3D microfluidic cell culture device” (Dana-Farber Cancer Institute, Inc., priority 2017, dated 2023)
Where two headings read alike, the source gives them in different places.

How the values were obtained:
Assay in all cases: SelectScreen Kinase Profiling, single point inhibition and IC50 for off-target kinases
Format in all cases: biochemical
off-target kinases [1] = biological target: off-target kinases (Homo sapiens, UniProt Q14680); settings: MELK, ZLYTE, ATP Km app
off-target kinases [2] = biological target: T1, off-target kinases (Homo sapiens, UniProt Q9NRM7); settings: LATS2, LanthaScreen Binding
T1 sequence (Q9NRM7 1-1088): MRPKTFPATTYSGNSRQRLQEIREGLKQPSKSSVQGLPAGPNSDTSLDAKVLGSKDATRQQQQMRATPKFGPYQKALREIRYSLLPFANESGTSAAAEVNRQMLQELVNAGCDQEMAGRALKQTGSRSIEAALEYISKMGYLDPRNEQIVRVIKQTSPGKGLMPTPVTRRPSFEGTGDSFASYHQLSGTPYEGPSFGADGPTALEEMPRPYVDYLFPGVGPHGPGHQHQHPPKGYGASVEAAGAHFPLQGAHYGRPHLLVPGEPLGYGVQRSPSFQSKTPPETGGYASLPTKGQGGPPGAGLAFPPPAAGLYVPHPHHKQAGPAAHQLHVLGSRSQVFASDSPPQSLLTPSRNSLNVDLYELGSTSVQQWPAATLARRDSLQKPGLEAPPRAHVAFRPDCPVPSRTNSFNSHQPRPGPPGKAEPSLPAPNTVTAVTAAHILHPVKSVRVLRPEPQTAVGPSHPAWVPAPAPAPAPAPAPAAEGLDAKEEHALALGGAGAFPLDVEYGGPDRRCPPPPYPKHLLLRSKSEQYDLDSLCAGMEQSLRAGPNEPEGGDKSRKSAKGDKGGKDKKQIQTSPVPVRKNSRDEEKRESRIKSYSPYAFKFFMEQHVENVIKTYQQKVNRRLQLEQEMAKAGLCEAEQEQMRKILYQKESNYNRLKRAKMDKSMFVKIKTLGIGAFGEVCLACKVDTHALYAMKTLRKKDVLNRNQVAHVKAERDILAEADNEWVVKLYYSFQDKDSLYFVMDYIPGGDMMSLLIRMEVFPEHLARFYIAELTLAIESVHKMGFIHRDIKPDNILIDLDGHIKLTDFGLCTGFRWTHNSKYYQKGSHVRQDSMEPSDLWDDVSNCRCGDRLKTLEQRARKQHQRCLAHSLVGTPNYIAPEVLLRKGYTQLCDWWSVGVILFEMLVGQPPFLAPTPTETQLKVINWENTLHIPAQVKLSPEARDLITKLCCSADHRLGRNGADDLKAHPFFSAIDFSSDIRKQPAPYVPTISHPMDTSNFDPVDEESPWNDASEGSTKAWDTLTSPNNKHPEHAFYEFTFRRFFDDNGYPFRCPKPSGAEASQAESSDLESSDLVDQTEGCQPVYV

off-target kinases [3] = biological target: off-target kinases (Homo sapiens, UniProt Q5S007, G2019S); settings: ATP Km app, Adapta
off-target kinases [4] = biological target: off-target kinases (Homo sapiens, UniProt P27361); settings: MAPK3 (ERK1), ZLYTE, ATP Km app
off-target kinases [5] = biological target: off-target kinases (Homo sapiens, UniProt Q9HCP0); settings: CSNK1G1 (CK1 gamma 1); Cmpd1 1000 μM; ATP Km app; ZLYTE
Sequence of off-target kinases (Homo sapiens, UniProt Q9HCP0) (Q9HCP0 whole entry): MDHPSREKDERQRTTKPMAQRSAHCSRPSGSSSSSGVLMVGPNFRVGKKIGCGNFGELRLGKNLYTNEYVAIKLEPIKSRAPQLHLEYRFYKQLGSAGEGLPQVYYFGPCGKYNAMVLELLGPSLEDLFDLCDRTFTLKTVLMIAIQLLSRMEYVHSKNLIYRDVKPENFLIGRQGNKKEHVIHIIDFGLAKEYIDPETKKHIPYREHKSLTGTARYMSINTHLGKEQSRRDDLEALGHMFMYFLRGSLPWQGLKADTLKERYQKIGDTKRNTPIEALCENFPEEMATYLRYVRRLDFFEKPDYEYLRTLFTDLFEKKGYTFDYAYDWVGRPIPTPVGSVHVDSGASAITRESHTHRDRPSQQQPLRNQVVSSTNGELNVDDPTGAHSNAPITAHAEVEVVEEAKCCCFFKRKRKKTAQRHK

Sequence of off-target kinases (Homo sapiens, UniProt Q5S007, G2019S) (Q5S007 whole entry G2019S): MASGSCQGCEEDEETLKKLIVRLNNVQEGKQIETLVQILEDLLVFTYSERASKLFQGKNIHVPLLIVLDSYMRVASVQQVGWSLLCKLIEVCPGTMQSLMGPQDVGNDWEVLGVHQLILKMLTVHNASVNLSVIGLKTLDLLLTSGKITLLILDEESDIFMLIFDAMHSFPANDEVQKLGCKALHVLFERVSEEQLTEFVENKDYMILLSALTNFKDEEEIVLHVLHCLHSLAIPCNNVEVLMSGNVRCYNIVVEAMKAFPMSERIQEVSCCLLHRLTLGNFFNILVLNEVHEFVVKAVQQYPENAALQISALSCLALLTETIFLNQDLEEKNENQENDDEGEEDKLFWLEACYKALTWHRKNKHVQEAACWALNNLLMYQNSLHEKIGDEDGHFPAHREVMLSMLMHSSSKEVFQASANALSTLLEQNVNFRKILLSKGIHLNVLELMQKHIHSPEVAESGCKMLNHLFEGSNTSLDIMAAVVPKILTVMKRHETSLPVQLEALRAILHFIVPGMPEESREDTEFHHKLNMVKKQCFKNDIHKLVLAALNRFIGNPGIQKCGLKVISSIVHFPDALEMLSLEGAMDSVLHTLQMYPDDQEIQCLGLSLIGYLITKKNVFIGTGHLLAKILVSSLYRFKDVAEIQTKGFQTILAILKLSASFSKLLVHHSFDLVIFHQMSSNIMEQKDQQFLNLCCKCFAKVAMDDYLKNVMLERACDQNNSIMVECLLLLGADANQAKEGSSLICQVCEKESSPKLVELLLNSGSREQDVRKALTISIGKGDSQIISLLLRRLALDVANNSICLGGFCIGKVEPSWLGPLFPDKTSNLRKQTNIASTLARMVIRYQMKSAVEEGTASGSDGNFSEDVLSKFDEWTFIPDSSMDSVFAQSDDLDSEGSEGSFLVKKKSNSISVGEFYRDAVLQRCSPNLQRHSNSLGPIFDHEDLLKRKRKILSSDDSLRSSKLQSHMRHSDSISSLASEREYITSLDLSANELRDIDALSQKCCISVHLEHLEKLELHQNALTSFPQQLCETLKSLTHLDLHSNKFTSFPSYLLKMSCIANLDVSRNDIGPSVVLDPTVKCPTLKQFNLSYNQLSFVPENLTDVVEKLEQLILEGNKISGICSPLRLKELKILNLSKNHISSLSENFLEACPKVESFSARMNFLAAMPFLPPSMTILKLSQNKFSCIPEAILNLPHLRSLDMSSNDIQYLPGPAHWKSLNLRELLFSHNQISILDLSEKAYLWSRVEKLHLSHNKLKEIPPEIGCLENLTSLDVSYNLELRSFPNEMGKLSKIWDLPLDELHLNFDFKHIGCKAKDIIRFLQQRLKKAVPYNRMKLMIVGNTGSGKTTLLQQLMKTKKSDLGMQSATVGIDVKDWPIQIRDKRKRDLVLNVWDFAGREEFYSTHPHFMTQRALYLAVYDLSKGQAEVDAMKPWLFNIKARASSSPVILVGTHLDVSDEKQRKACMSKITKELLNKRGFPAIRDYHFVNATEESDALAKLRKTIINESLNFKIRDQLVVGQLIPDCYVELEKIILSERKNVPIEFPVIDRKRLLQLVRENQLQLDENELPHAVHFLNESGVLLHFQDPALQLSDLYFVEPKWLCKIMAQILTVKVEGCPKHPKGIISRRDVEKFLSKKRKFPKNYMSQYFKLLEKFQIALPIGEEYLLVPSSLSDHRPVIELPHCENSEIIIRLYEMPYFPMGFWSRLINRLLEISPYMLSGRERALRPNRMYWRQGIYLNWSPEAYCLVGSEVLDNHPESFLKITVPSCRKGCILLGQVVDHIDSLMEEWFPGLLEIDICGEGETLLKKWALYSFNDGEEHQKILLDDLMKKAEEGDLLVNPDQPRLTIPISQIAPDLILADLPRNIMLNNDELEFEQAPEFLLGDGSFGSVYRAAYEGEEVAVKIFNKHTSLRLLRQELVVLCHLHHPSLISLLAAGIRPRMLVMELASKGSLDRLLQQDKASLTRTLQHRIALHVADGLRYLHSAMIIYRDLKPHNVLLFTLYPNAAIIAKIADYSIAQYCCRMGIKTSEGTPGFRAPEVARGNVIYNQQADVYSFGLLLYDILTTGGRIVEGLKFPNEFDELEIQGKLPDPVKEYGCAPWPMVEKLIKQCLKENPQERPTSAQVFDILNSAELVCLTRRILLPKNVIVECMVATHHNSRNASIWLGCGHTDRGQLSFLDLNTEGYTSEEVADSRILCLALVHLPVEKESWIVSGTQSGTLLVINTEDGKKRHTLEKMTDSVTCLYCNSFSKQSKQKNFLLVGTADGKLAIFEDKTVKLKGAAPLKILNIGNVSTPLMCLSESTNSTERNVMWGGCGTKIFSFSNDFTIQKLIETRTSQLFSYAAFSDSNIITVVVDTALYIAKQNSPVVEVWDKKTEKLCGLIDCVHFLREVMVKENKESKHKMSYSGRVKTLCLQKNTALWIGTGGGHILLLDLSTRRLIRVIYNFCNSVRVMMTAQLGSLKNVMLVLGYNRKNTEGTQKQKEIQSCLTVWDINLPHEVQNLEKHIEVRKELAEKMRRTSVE
Sequence of off-target kinases (Homo sapiens, UniProt Q14680) (Q14680 whole entry): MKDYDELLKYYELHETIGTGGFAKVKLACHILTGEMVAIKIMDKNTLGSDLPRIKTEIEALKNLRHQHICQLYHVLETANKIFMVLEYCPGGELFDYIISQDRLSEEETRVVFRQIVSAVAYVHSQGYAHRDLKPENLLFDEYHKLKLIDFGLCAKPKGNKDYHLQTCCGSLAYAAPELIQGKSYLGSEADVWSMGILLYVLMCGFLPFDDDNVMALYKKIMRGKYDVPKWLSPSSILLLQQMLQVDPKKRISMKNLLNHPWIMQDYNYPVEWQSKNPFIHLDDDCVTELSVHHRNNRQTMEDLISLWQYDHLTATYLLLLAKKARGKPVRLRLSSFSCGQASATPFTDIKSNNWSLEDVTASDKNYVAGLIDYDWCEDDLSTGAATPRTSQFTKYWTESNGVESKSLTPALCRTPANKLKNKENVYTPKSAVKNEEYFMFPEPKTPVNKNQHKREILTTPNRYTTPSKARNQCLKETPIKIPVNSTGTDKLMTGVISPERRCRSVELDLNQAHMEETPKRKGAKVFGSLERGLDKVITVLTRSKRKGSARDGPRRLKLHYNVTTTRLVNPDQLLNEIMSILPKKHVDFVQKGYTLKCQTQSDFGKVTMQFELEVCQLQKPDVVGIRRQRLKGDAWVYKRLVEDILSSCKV
Sequence of off-target kinases (Homo sapiens, UniProt P27361) (P27361 whole entry): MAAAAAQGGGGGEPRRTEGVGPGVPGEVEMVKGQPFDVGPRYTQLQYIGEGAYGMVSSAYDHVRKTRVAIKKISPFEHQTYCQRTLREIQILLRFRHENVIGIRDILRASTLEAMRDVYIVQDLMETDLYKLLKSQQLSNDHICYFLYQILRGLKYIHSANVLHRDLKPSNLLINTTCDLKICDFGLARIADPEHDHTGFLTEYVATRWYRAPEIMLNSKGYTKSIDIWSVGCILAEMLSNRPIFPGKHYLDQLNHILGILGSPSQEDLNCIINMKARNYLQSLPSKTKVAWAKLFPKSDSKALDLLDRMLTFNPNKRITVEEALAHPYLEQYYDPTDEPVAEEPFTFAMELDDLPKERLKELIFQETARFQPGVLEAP

N#Cc1cc(-c2ncnc(Nc3ccc(N4CCN(C5COC5)CC4)cc3)n2)ccc1OC1CCOCC1 [Compound 1, 5-(4-((4-(4-(oxetan-3-yl)piperazin-1-yl)phenyl)amino)-1,3,5-triazin-2-yl)-2-((tetrahydro-2H-pyran-4-yl)oxy)benzonitrile]
inhibition (off-target kinases [1]; read-out: % Inhibition 1): 25%
inhibition (off-target kinases [1]; read-out: % Inhibition 2): 22%
inhibition (off-target kinases [1]; read-out: % Inhibition Avg): 23%
inhibition (off-target kinases [2]; read-out: % Inhibition 1): 23%
inhibition (off-target kinases [2]; read-out: % Inhibition 2): 25%
inhibition (off-target kinases [2]; read-out: % Inhibition Avg): 24%
inhibition (off-target kinases [3]; LRRK2 G2019S FL, read-out: % Inhibition 1): 100%
inhibition (off-target kinases [3]; LRRK2 G2019S FL, read-out: % Inhibition 2): 99%
inhibition (off-target kinases [3]; LRRK2 G2019S FL, read-out: % Inhibition Avg): 99%
inhibition (off-target kinases [3]; LRRK2 G2019S, read-out: % Inhibition 1): 99%
inhibition (off-target kinases [3]; LRRK2 G2019S, read-out: % Inhibition 2): 100%
inhibition (off-target kinases [3]; LRRK2 G2019S, read-out: % Inhibition Avg): 100%
inhibition (off-target kinases [4]; read-out: % Inhibition 1): 3%
inhibition (off-target kinases [4]; read-out: % Inhibition 2): -2%
inhibition (off-target kinases [4]; read-out: % Inhibition Avg): 0%
% Inhibition 1 (off-target kinases [5]): −14%
% Inhibition 2 (off-target kinases [5]): 2%
% Inhibition Avg (off-target kinases [5]): −6%
